assay: gradient 5% acetonitrile 3 min, to 50% in 2 min, to 85% in 15 min, held 3 min, 100 µL/min; conditions: column: Zorbax Extend-C18 2.1 x 50 mm; eluents: water / acetonitrile, 0.1% formic acid
Procedure, shortened: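 Retention times of pure standards were taken from adduct peaks that were selected by computer and manually inspected. Over 3 months, mixtures of ~100 molecules were run by HPLC–quadrupole time-of-flight mass spectrometry in positive and negative ionization mode. The Zorbax Extend-C18 column (2.1 × 50 mm, 1.8 μm) ran at 100 μL/min in water and acetonitrile, each containing 0.1% formic acid, with 40 μL dead volume and 900 μL dwell volume.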

RP-LC retention time	SMILES
752 s	CCn1c(N2CCCC(C(=O)NCc3ccc(OC)cc3OC)C2)cc(=O)n(C)c1=O (stereo not given)
698 s	CC(C)NC(=O)c1ccc2c(c1)N(C)C(=O)CS2
691 s	CCn1c(=O)c(-c2noc(C(=O)N3CCN(c4ccccn4)CC3)n2)nn(-c2ccccc2)c1=O
988 s	Cn1c(C(=O)Nc2ccc(F)cc2Cl)cc2c(=O)oc3ccccc3c21
877 s	Cc1noc(C)c1S(=O)(=O)N1CCC(C(=O)NCCc2csc(-c3ccccc3)n2)CC1
1060 s	CNC(=O)N1CC2(CCCCC2)CC1COCc1ccccc1 (stereo not given)
1130 s	Cc1cccc(Oc2nccnc2N2CCC(C(=O)NC(C)c3ccc(C)c(C)c3)CC2)c1 (stereo not given)
881 s	CC1(C)C(=O)N(CC(=O)NCc2ccccc2Cl)c2ccccc21
625 s	O=C1NCCCCCCN(C(=O)c2cn[nH]c2)[C@H]2CCC[C@@H]12
585 s	CCOC(=O)C1=C(CN2CCN(Cc3ccc4c(c3)OCO4)CC2)NC(=O)NC1c1ccc(C)cc1 (stereo not given)
743 s	COc1ccc(-c2nc(NC(C)C)c3ccccc3n2)cc1
706 s	CCN(CC)c1ccc(CN(C(=O)Cc2coc3ccc(C)cc23)C2CCS(=O)(=O)C2)cc1 (stereo not given)
1160 s	Cc1ccc(C)c(CNC(=O)c2nnc(-c3ccc(S(=O)(=O)N4CCC(C)CC4)cc3)o2)c1
595 s	CN(C)S(=O)(=O)c1ccc(-c2nnc(C(=O)NCc3cccnc3)o2)cc1
872 s	O=C(Cn1c(=O)c2cc(-c3cccs3)nn2c2ncccc21)Nc1ccc(F)cc1F
894 s	CCOc1ccc2nc(NC(=O)Cn3nc(C(=O)N4CCCC4)c4ccccc43)sc2c1
550 s	Cn1c(=O)n(CCCC#N)c2cncnc21
753 s	O=C(CN1CCC(c2nc(-c3cccs3)no2)CC1)Nc1ccccc1C(F)(F)F
613 s	Cc1ccc(NC(=O)N2CCC(CN3CCCC(C)C3)CC2)cc1 (stereo not given)
1090 s	Cc1ccc(N2CC(c3noc(-c4cccc(C)c4)n3)CC2=O)cc1 (stereo not given)
896 s	Cc1ccc(C)c(NC(=O)Cc2csc3nc(-c4ccc(C)c(C)c4)cn23)c1
647 s	CCOC(=O)[C@H](CCc1ccccc1)N[C@@H](C)C(=O)N1CCC[C@@H]1C(=O)O
862 s	O=C(NC1CC1)c1ccc(OCC2CCCN(C(=O)c3ccc(F)c(Cl)c3)C2)cc1 (stereo not given)

RP-LC retention time	SMILES
800 s	O=C(Nc1ccccc1)c1ccc2c(cnn2CC(=O)N2CCCCCC2)c1
991 s	CCn1c(=O)c(N2CCN(C(=O)Nc3ccccc3Br)CC2)nc2cccnc21
604 s	CS(=O)(=O)N1CCC(C(=O)Nc2nc3c(s2)COCC3)CC1
961 s	CSc1cccc(N2C=C(C#N)S(=O)(=O)c3ccc(Cl)cc32)c1
896 s	CCOc1ccc(NC(=O)Cn2c(C)cc(-c3nnc(C4CCC4)o3)c2C)cc1
670 s	CCCNC(=O)C1CCCN(c2ccc(SCC(=O)Nc3cccc(F)c3)nn2)C1 (stereo not given)
623 s	CCOc1cc(=O)n2c(c1C(=O)NC(C)C)CCCCC2
588 s	Cc1nn(C)c(C)c1S(=O)(=O)N1CCC(n2c(C)cnc2-c2ccncc2)C1 (stereo not given)
770 s	CCNc1nc(C)cc(N2CCN(S(=O)(=O)c3ccc(Cl)c(Cl)c3)CC2)n1
596 s	COC(=O)c1c(NCC(C)O)c2cc(F)ccc2[nH]c1=O (stereo not given)
846 s	COc1ccc(-c2noc(Cn3cnc4c(oc5ccccc54)c3=O)n2)cc1OC
826 s	CN(Cc1ccco1)C(=O)CC1CCN(C(=O)c2cc3ccccc3[nH]2)CC1
893 s	Cc1ccc(C)c(CNC(=O)c2cccn2Cc2noc(C)n2)c1
831 s	CCC(=O)N1CCc2c(C(=O)NC3CCCCC3)cccc21
851 s	Cc1ccsc1C(=O)N1CCC2(CC1)CC(OCC1CC1)CCO2 (stereo not given)
576 s	O=C1CO[C@@H](C(=O)O)[C@H](c2ccccc2)N1
1120 s	Cc1cc(C)c(S(=O)(=O)N2CCC(n3cnc4c(C)cccc4c3=O)CC2)cc1C
638 s	COc1c(C)cnc(Cn2cnc3c(Cl)nc(N)nc32)c1C
863 s	CCCCC(=O)Nc1nc(-c2ccc3c(c2)NC(=O)C(C)O3)cs1 (stereo not given)
828 s	Cc1cc(C(=O)N2CC3CN(S(=O)(=O)c4cccc(F)c4)CC(C2)O3)c(C)o1
844 s	O=C(Cc1ccsc1)NCc1cnoc1-c1ccc(F)cc1
786 s	COc1ccc(Cl)cc1NC(=O)NCC1CN(CC2CC2)CC12CCCCC2 (stereo not given)
